The record followed here is US10952940B2, “Reagents and methods for mineralization of tooth enamel” (UNIVERSITY OF WASHINGTON, priority 2016, dated 2021).

The nature of the assay: In vitro re-mineralization of tea-stained rat tooth using the peptide solution. The note with it: tea-stained rat tooth quarter; peptide 10 min 37° C., then CaCl2/KH2PO4 16 hours. How it is done:
Rat teeth (molars) were obtained from sacrificed rats (for example, Sprague Dawley rats, age 3 weeks or older) from animal facility, collected, and stored in 100% alcohol. Prior to the re-mineralization experiments the teeth were stored in 1% bleach for 24 hours. […] The teeth were then dried in an incubator in air at 37° C. for 3-6 hours to produce dry surface. The root site and section the crown were removed vertically using a diamond blade. Pictures were taken with camera attached to optical microscope. Exposed dentine sites in the one half of the sectioned tooth were etched with 35% phosphoric acid (Ultraetch™) for 60 seconds (to facilitate the stain intake). The etching gel was removed by rinsing the sample with distilled water for 3 minutes. The staining solution was prepared by boiling 2 g of tea in 100 ml of deionized water for 5 minutes, and then cooled down to room temperature and filtered. The tooth sample was soaked in the staining solution and incubated at 37° C. at 150 rpm for 24 hours. The tooth was removed from the staining solution and sonicated for 30 seconds in deionized water (sonic bath) to remove the excess amount of tea particles attached to tooth extrinsically. The one half of the sectioned tooth was cut vertically into half again to form two quarter sections of the tooth. A second set of pictures were taken with camera attached to optical microscope. […]

With “SYENSHSQAINVDRT [shADP5, 15-amino acid long amelogenin-derived peptide, shortened human ADP5]”, the “tooth color compared with control” value is listed as “lighter in color than the control”.
